# Reference: patent US6165441A, “Method of diagnosis and photodynamic therapy of tumours” (Nycomed Amersham Sorin SRL, priority 1995, dated 2000)
# Tests used:
# tumour = details: cited from earlier work
# MS-2 fibrosarcoma = experiment: Tumour accumulation and tumour/muscle radioactivity ratio; type: in vivo, Balb/c mice; details: for Kinetics of tumour uptake and clearance, ^131 I--ZnPc versus ZnPc: mouse, in vivo; for Recovery from TUMOUR: average of three mice ± s.d.
# Description: (§1) Experimental tests were carried out in Balb/c mice affected by a MS-2 fibrosarcoma. This tumour model had been previously used for extensive PDT studies with unlabelled ZnPc.
# (§2) For tumour implantation 2×10^5 cells in 0.2 ml of sterile physiological solution were intramuscularly injected into the right hind leg of female Balb/c mice having a body wt. of 20-22 g. All the experiments were started on the eighth day after tumour implantation, when the external diameter was ca. 0.8 cm and no detectable spontaneous tumour necrosis had generally occurred. When necessary, mice were anesthetized by i.p. injection of Ketalar (150 mg/kg).
# (§3) Balb/c mice bearing the MS-2 fibrosarcoma were injected in the tail vein with ^131 I--ZnPc at does between 0.024 and 0.096 MBq/g. At predetermined times up to 24 hours after injection, the whole body of the mice was scanned with a Gamma Camera General Electric Stargem in order to ensure the radioactivity levels at different anatomical sites. Then, the mice were sacrificed by prolonged exposure to ether vapours; the blood, tumour and selected normal tissues (muscle, skin, lung, liver, spleen, kidney, brain) were rapidly taken. The blood was centrifuged to remove the erythrocytes and the radioactivity in the plasma (100 μl) was analyzed. Moreover, tissues were washed with physiological solution, weighed, introduced into RIA test tubes and centrifuged for 10 minutes and 2000 g. The radioactivity was collected for 1 minute by a gamma counter (Packard Selektronik Design). A different group of mice was injected as above described, sacrificed at 3 hours, 15 hours, 24 hours, 48 hours and 96 hours after injection (three mice at each time) and the radioactivity in plasma and tissues homogenates was determined.
# FIG. 2 is an histogram showing the ratio between the tumour/muscle radioactivity of ^131 I--ZnPc at different times after injection of 0.096 MBq/g ^131 I--ZnPc in DPPC liposomes; averaged ratios for three independently analyzed mice±s.d..
# FIG. 3 is an histogram showing the ratio between the tumour/muscle radioactivity of ^131 I--ZnPc at different concentrations at 24 hours after injection of ^131 I--ZnPc in DPPC liposomes; averaged ratio for three independently analyzed mice±s.d..
# [1] = Clearance of ^131 I--ZnPc from serum; type: in vivo, Balb/c mice
# Description: as §3
# [2] = Biodistribution of ^131 I radioactivity in excised tissues after i.v. injection (pharmacokinetic studies, gamma counter); type: in vivo, Balb/c mice; details: for Recovery from BRAIN / Recovery from KIDNEY / Recovery from LIVER / Recovery from LUNG / Recovery from MUSCLE / Recovery from SPLEEN: 0.096 MBq/g in DPPC liposomes, average of three mice ± s.d.
# Description: as §1, §2
# ^131 I--Zn(II)-phthalocyanine was incorporated into small unilamellar vesicles of DPPC following the procedure described by Valduga et al., J.Inorg.Biochem. (1987), 25-59.
# as §3
# [3] = In vivo whole body Gamma Camera scanning of radioactivity distribution; design: species or system Balb/c mice
# Description: as §3
# [4] = i.v. 0.096 MBq/g in DPPC liposomes
molecule,measurement,setting,value
"[Zn+2].c1ccc2c(c1)-c1nc-2nc2[n-]c(nc3nc([n-]c4nc(n1)-c1ccccc1-4)-c1ccccc1-3)c1ccccc21 [ZnPc, Zn(II)-phthalocyanine]",Selectivity of tumour accumulation,tumour; in vivo,enhanced selectivity of tumour accumulation
same,Lowest phototherapeutically active dose,"tumour; liposome-incorporated, doses as low as",0.15 mg/kg body wt.
same,"Kinetics of tumour uptake and clearance, ^131 I--ZnPc versus ZnPc",MS-2 fibrosarcoma,quite similar
^131 I--Zn(II)-phthalocyanine [^131 I--ZnPc],Time of maximum tumour-to-muscle concentration ratio,"MS-2 fibrosarcoma; 0.096 MBq/g in DPPC liposomes, FIG. 2",15 h
same,Tumour-to-muscle concentration ratio over the studied time interval,"MS-2 fibrosarcoma; 0.096 MBq/g in DPPC liposomes, after 15 hours, FIG. 2",remains at an essentially constant level throughout the studied time interval
same,Recovery from TUMOUR,"MS-2 fibrosarcoma; 3 h, 0.096 MBq/g in DPPC liposomes",140.3 ± 38.6 CPM/mg of tissue
same,Recovery from TUMOUR,"MS-2 fibrosarcoma; 15 h, 0.096 MBq/g in DPPC liposomes",182.7 ± 16.0 CPM/mg of tissue
same,Recovery from TUMOUR,"MS-2 fibrosarcoma; 24 h, 0.096 MBq/g in DPPC liposomes",212.9 ± 8.6 CPM/mg of tissue
same,Effect of injected dose on tumour/muscle ratio,"MS-2 fibrosarcoma; 24 hours after administration, 0.024 to 0.096 MBq/g, FIG. 3",affected to a minor extent by the injected dose
same,Recovery from TUMOUR,"MS-2 fibrosarcoma; 48 h, 0.096 MBq/g in DPPC liposomes",180.7 CPM/mg of tissue
same,Recovery from TUMOUR,"MS-2 fibrosarcoma; 96 h, 0.096 MBq/g in DPPC liposomes",162.2 ± 19.5 CPM/mg of tissue
same,Tumour localization,MS-2 fibrosarcoma; ^131 I label,efficient and selective tumour localizer
same,Time of maximal tumour concentration,MS-2 fibrosarcoma; after ca.,ca. 24 hours
same,Rate of uptake by the tumour,MS-2 fibrosarcoma; compared with several normal tissues,relatively low rate of uptake by the tumour as compared with several normal tissues
same,Time of maximum accumulation in tumour,MS-2 fibrosarcoma; [4],24 h
same,"Kinetics of tumour uptake and clearance, ^131 I--ZnPc versus ZnPc",MS-2 fibrosarcoma,quite similar
same,Selectivity of tumour targeting (tumour/muscle ratio) compared with ZnPc,MS-2 fibrosarcoma; tumour/muscle ratios of phthalocyanine recovery,almost twice higher selectivity of tumour targeting
same,Clearance rate from serum,[1]; [4],particularly fast during the initial 15 hours after administration
same,Elimination from mouse serum,"[1]; i.v. 0.096 MBq/g in DPPC liposomes, within 96 hours",almost completely eliminated from mouse serum within 96 hours
same,Clearance profile from the serum,"[1]; mouse, in vivo",apparently polyphasic clearance from the serum
same,Initial radioactivity disappearing from serum,"[1]; within the initial 24 hours post-injection, almost",~80%
same,Recovery from BRAIN,[2]; 3 h,11.7 ± 0.1 CPM/mg of tissue
same,Recovery from KIDNEY,[2]; 3 h,156.9 ± 9.7 CPM/mg of tissue
same,Recovery from LIVER,[2]; 3 h,984.2 ± 15.7 CPM/mg of tissue
same,Recovery from LUNG,[2]; 3 h,168.3 ± 5.6 CPM/mg of tissue
same,Recovery from MUSCLE,[2]; 3 h,41.1 ± 3.6 CPM/mg of tissue
same,Recovery from SPLEEN,[2]; 3 h,600.9 ± 8.1 CPM/mg of tissue
same,Recovery from BRAIN,[2]; 15 h,5.2 ± 1.5 CPM/mg of tissue
same,Recovery from KIDNEY,[2]; 15 h,84.4 ± 8.4 CPM/mg of tissue
same,Recovery from LIVER,[2]; 15 h,871.1 ± 146.8 CPM/mg of tissue
same,Recovery from LUNG,[2]; 15 h,76.2 ± 31.4 CPM/mg of tissue
same,Recovery from MUSCLE,[2]; 15 h,22.4 ± 9.3 CPM/mg of tissue
same,Recovery from SPLEEN,[2]; 15 h,503.7 ± 46.8 CPM/mg of tissue
same,Recovery from BRAIN,[2]; 24 h,4.3 ± 0.6 CPM/mg of tissue
same,Recovery from KIDNEY,[2]; 24 h,77.3 ± 11.2 CPM/mg of tissue
same,Recovery from LIVER,[2]; 24 h,1043.7 ± 72.5 CPM/mg of tissue
same,Recovery from LUNG,[2]; 24 h,83.3 ± 12.4 CPM/mg of tissue
same,Recovery from MUSCLE,[2]; 24 h,23.7 ± 2.0 CPM/mg of tissue
same,Recovery from SPLEEN,[2]; 24 h,635.1 ± 65.8 CPM/mg of tissue
same,Recovery from BRAIN,[2]; 48 h,3.4 CPM/mg of tissue
same,Recovery from KIDNEY,[2]; 48 h,59.4 CPM/mg of tissue
same,Recovery from LIVER,[2]; 48 h,849.1 ± 90.3 CPM/mg of tissue
same,Recovery from LUNG,[2]; 48 h,73.4 CPM/mg of tissue
same,Recovery from MUSCLE,[2]; 48 h,22.3 CPM/mg of tissue
same,Recovery from SPLEEN,[2]; 48 h,549.7 CPM/mg of tissue
same,Recovery from BRAIN,[2]; 96 h,2.0 ± 0.4 CPM/mg of tissue
same,Recovery from KIDNEY,[2]; 96 h,61.6 ± 16.8 CPM/mg of tissue
same,Recovery from LIVER,[2]; 96 h,831.9 ± 52.5 CPM/mg of tissue
same,Recovery from LUNG,[2]; 96 h,52.1 ± 6.9 CPM/mg of tissue
same,Recovery from MUSCLE,[2]; 96 h,15.8 ± 2.5 CPM/mg of tissue
same,Recovery from SPLEEN,[2]; 96 h,413.0 ± 42.7 CPM/mg of tissue
same,Amounts recovered from muscle,[2]; at all times,small amounts of phthalocyanine are recovered from muscle at all times
same,Elimination from liver and spleen,[2]; during the initial four days,relatively slow elimination at least during the initial four days
same,Amounts recovered from brain,[2]; i.v. in DPPC liposomes,minimal amounts
same,Levels in kidneys,[2]; i.v. in DPPC liposomes,comparatively low levels observed in kidneys
same,Recovery in the liver and spleen,[2]; i.v. in DPPC liposomes,very high in the liver and spleen
same,Toxic effects on the central nervous system,[2]; inferred from minimal brain recovery,unlikely
same,Amount cleared via the kidneys,[2]; main elimination via bile-gut pathway,only minor amounts cleared via the kidneys
same,Amount accumulated by liver and spleen,"[2]; mouse, in vivo",large amount accumulated by liver and spleen
same,Accumulation in the liver compared with ZnPc,[2]; short post-injection times,greater accumulation
same,Liver concentration relative to tumour,[2]; short post-injection times,ca. 7 fold
same,Localization of radioactivity in the whole animal,[3]; at all examined time intervals,strictly localized at the level of liver and tumour with no general delocalization throughout the organism
same,Dissociation of ^131 I from the phthalocyanine in vivo,[3]; inferred from whole-animal distribution,unlikely that ^131 I is dissociated from the phthalocyanine to any significant extent
